# Assay results published in PubChem BioAssay (NCI).
#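 Grown in 96-well plates, cells were treated for 48 hours with each compound at five concentrations. Insufficient inhibition: endpoint recorded as highest concentration tested. GI50 marks 50% less growth. TGI: concentration producing complete growth inhibition.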
# Assays:
# Assay in all cases: inhibition of tumour cell growth, NCI panel, 48 h
# [1] = system: BT-549 breast
# [2] = system: CAKI-1 renal
# [3] = system: DU-145 prostate
# [4] = system: EKVX NSCLC
# [5] = system: HS 578T breast
# [6] = system: K-562 leukemia
# [7] = system: MALME-3M melanoma
# [8] = system: MOLT-4 leukemia
# [9] = system: NCI-H226 lung
# [10] = system: U251 CNS
SMILES,GI50 [1] [µM],TGI [1] [µM],GI50 [2] [µM],TGI [2] [µM],GI50 [3] [µM],TGI [3] [µM],GI50 [4] [µM],TGI [4] [µM],GI50 [5] [µM],TGI [5] [µM],GI50 [6] [µM],TGI [6] [µM],GI50 [7] [µM],TGI [7] [µM],GI50 [8] [µM],TGI [8] [µM],GI50 [9] [µM],TGI [9] [µM],GI50 [10] [µM],TGI [10] [µM]
OCc1ncc(-c2ccccc2)s1,> 100,> 100,> 100,> 100,> 100,> 100,> 100,> 100,> 100,> 100,> 100,> 100,> 100,> 100,> 100,> 100,> 100,> 100,> 100,> 100
Cc1[nH]c(=O)nc(N/N=C/c2ccc(Cl)cc2)c1C(=O)Nc1ccc(Cl)cc1,,> 100,,> 90.9,,> 100,,> 100,,> 100,,> 85.1,,55.2,,> 91.9,,> 100,,23.5
CCOc1ccc(NC(=O)c2cc3ccccc3cc2O)cc1,42,> 100,> 100,> 100,> 100,> 100,> 100,> 100,59.8,> 100,52.5,> 100,39.7,> 100,> 100,> 100,64.3,> 100,45.9,> 100
NC(=S)N/N=C/c1ccc(OC(=O)COc2ccccc2)cn1,26.4,> 100,4.01,> 100,2.72,8.96,40,> 100,68.4,> 100,2.88,> 100,11.2,> 100,2.53,> 100,20.3,64,4.15,> 100
CC(C)c1ccc(/C=N/N=C(N)N)cc1,13.2,30,6.31,22,11.2,23.8,5.33,24.4,11.5,36.5,4.16,16.2,5.56,21.1,5.17,32.6,12.2,26.3,4.63,17
Cc1ccc(N(/C=C/C(=O)C(F)(F)F)CC(=O)c2ccc(Cl)c(Cl)c2)cc1,2.22,11.2,12.4,24.9,5.77,20.3,3.54,18.9,2.35,17.1,3.37,11.7,6,20.6,4.48,19.9,14.9,28.7,10.7,22.6
Cn1ccc2c3c(=O)cc[nH]c3ccc21,> 100,> 100,32.4,95.1,> 100,> 100,> 100,> 100,20.2,> 100,> 100,> 100,> 100,> 100,> 100,> 100,> 100,> 100,> 100,> 100
CC(=O)OC1CC2(O)C(CCC3(C)C(c4ccc(=O)oc4)CCC32O)C2(C)CCC(OC3OC(CO)C(O)C(O)C3O)C=C12 (stereo not given),0.0101,0.0661,0.0306,0.131,0.0183,0.0594,0.0135,0.0419,0.0103,0.701,0.0295,0.175,0.0245,0.0593,< 0.01,0.015,0.051,0.176,0.0348,0.136
COc1ccc(Nc2ncc(-c3ccccc3)o2)cc1OC,18.6,> 25,7.02,> 25,10.7,> 25,> 25,> 25,8.43,> 25,8.3,> 25,> 25,> 25,13.6,> 25,> 20.6,> 25,11.2,> 25
CC(=O)[O][Hg][CH2]C1(C)COC(C)([CH2][Hg][O]C(C)=O)CO1 (stereo not given),1.76,3.64,0.805,2.42,10.4,23.1,18.4,36.3,2.61,16,0.607,2.71,4.66,9.23,0.747,3.14,6.16,14.2,1.44,2.79
